Experimental data: patent US9066960B2, “Use of the effective fraction of alkaloids from mulberry twig in preparing hypoglycemic agents” (INSTITUTE OF MATARIA MEDICA, CHINESE ACADEMY OF MEDICAL …, priority 2006, dated 2015)

Test system: α-glucosidase
Assay: α-glucosidase inhibitor activity
Type: biochemical

Compound: OCC1NCC(O)C(O)C1O (stereo not shown) [1-deoxynojirimycin]
- Activity among the alkaloids of the effective fraction: the activity is also the highest
